Tests used:
[1] = molecular target: Prostaglandin G/H synthase 1 (Homo sapiens, UniProt P23219); experiment: Inhibition of human COX-1
[2] = species on record: Homo sapiens; experiment: Selectivity ratio of IC50 for human COX1 to IC50 for human COX2
[3] = tested on: Rattus norvegicus; experiment: Antiinflammatory activity in rat air pouch model assessed as inhibition of carrageenan-induced PGE2 production administered 1 hr before carrageenan challenge; assay type: functional; details: for ED50: Rattus norvegicus
[4] = tested on: Rattus norvegicus; experiment: Antiinflammatory activity in rat assessed as reduction of carrageenan-induced paw edema; assay type: functional
[5] = species on record: Rattus norvegicus; experiment: Analgesic activity against carrageenan-induced thermal hyperalgesia in rat; assay type: functional
[6] = species on record: Rattus norvegicus; experiment: Antiarthritic activity in rat assessed as reduction in adjuvant-induced arthritic pain; assay type: functional
[7] = Half life in rat; assay type: ADME, organism-based; details: in vivo
[8] = Half life in dog; assay type: ADME, organism-based, Canis lupus familiaris; details: in vivo
[9] = Half life in human at 10 ug, po; assay type: ADME, organism-based; details: in vivo
[10] = Half life in cynomolgus monkey; assay type: ADME, organism-based, Macaca fascicularis; details: in vivo
[11] = tested on: Rattus norvegicus; experiment: Antiinflammatory activity in rat air pouch model assessed as inhibition of carrageenan-induced PGE2 production administered 1 hr after carrageenan challenge

Sequence of Prostaglandin G/H synthase 1 (P23219 whole entry): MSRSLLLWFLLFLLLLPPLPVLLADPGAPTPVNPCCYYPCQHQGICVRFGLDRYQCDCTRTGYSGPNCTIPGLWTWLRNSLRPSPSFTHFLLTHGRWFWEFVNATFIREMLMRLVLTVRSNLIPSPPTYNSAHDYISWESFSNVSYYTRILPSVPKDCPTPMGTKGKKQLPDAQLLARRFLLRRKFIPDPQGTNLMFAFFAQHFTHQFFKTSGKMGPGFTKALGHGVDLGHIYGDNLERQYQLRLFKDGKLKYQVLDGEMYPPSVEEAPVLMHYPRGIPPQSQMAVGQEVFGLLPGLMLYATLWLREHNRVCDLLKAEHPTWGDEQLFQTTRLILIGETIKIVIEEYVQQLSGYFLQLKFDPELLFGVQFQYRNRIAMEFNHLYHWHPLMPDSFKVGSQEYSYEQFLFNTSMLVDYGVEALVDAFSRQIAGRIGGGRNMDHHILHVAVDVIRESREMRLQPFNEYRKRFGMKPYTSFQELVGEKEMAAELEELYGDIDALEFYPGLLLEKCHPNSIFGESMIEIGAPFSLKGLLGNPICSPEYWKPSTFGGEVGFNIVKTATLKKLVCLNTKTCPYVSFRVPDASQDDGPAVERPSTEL

In the case of O=C(O)C1=Cc2cc(C(F)(F)F)ccc2OC1C(F)(F)F (stereo not given), the IC50 [1] is reported as 4.39 µM.

In the case of COc1cc(C)cc2c1OC(C(F)(F)F)C(C(=O)O)=C2 (stereo not given), the Ratio IC50 [2] is reported as 2.9.

For CCCc1cc(OC(F)(F)F)cc2c1OC(C(F)(F)F)C(C(=O)O)=C2 (stereo not given), the IC50 [1] was 7 µM and the Ratio IC50 [2] was 163.

For Cc1cc(C)c2c(c1)C=C(C(=O)O)[C@@H](C(F)(F)F)O2, the IC50 [1] was 100 µM, the “inhibition (INH)” value [3] was 80% and the ED50 [3] was 2 mg/kg. The ED50 [4] was 8.6 mg/kg, the ED50 [5] was 20.7 mg/kg and the ED50 [6] was 10 mg/kg. It also gave a half-life [7] of 8.7 h, a half-life [8] of 19 h and a half-life [9] of 57 h. For the same compound, the half-life [10] was 28 h.

Compound Cc1cc(Cl)c(C)c2c1OC(C(F)(F)F)C(C(=O)O)=C2 (stereo not given) has an IC50 [1] of 2.58 µM and a Ratio IC50 [2] of 12.

With CCCc1cc(OC(F)(F)F)cc2c1O[C@H](C(F)(F)F)C(C(=O)O)=C2 the IC50 [1] was 71.7 µM and the “inhibition (INH)” value [3] was greater than 68%.

With Cc1ccc2c(c1)C=C(C(=O)O)C(C(F)(F)F)O2 (stereo not given) the IC50 [1] was 224 µM, the Ratio IC50 [2] was 896 and the “inhibition (INH)” value [3] was 13%.

In the case of Cc1cc(OC(F)(F)F)cc2c1O[C@H](C(F)(F)F)C(C(=O)O)=C2, the “inhibition (INH)” value [3] is reported as greater than 68%.

For COc1ccc2c(c1)C=C(C(=O)O)C(C(F)(F)F)O2 (stereo not given), the Ratio IC50 [2] was 1.

For CCc1cc(OC(F)(F)F)cc2c1OC(C(F)(F)F)C(C(=O)O)=C2 (stereo not given), the IC50 [1] was 0.5 µM.

In the case of Cc1cc(Cl)cc2c1OC(C(F)(F)F)C(C(=O)O)=C2 (stereo not given), the IC50 [1] is reported as 0.47 µM.

With Cc1cc(C)c2c(c1)C=C(C(=O)O)C(C(F)(F)F)O2 (stereo not given) the IC50 [1] was 169 µM and the Ratio IC50 [2] was 704.

In the case of O=C(O)C1=Cc2cc(OC(F)(F)F)ccc2OC1C(F)(F)F (stereo not given) [OCAROCOXIB], the IC50 [1] is reported as 17 µM and the Ratio IC50 [2] is reported as 773.

For COc1cc(Cl)c2c(c1)C=C(C(=O)O)C(C(F)(F)F)O2 (stereo not given), the IC50 [1] was 25.6 µM and the Ratio IC50 [2] was 107.

O=Cc1ccc2c(c1)C=C(C(=O)O)C(C(F)(F)F)O2 (stereo not given) gave an IC50 [1] of 500 µM and a Ratio IC50 [2] of 685.

In the case of CCc1cc(C)c2c(c1)C=C(C(=O)O)C(C(F)(F)F)O2 (stereo not given), the IC50 [1] is reported as 0.14 µM and the Ratio IC50 [2] is reported as 0.5.

For C#Cc1cc(Cl)c2c(c1)C=C(C(=O)O)C(C(F)(F)F)O2 (stereo not given), the IC50 [1] was 0.14 µM and the Ratio IC50 [2] was 5.4.

For N#Cc1ccc2c(c1)C=C(C(=O)O)C(C(F)(F)F)O2 (stereo not given), the IC50 [1] was 115 µM and the Ratio IC50 [2] was 1040.

With O=C(O)C1=Cc2cc(Cl)ccc2OC1C(F)(F)F (stereo not given) the Ratio IC50 [2] was 91.

Work on Cc1cc2c(c(C)c1Cl)C=C(C(=O)O)[C@H](C(F)(F)F)O2 yielded an IC50 [1] of 30.8 µM.

In the case of CCc1ccc2c(c1)C=C(C(=O)O)C(C(F)(F)F)O2 (stereo not given), the IC50 [1] is reported as 0.12 µM, the Ratio IC50 [2] is reported as 0.36 and the “inhibition (INH)” value [11] is reported as 90%.

In the case of CCc1cc(OC(F)(F)F)cc2c1O[C@H](C(F)(F)F)C(C(=O)O)=C2, the IC50 [1] is reported as 19.9 µM, the “inhibition (INH)” value [3] is reported as greater than 72% and the ED50 [3] is reported as 1.87 mg/kg. It also gave an ED50 [4] of 3.8 mg/kg, an ED50 [5] of 5.6 mg/kg and an ED50 [6] of 0.8 mg/kg. It also gave a half-life [7] of 2 h, a half-life [8] of 7.7 h and a half-life [9] of 13 h. The half-life [10] was 12 h.

With Cc1c(Cl)cc2c(c1C)O[C@H](C(F)(F)F)C(C(=O)O)=C2 the “inhibition (INH)” value [11] was 60%.

CCCc1cc(OC(F)(F)F)cc2c1O[C@@H](C(F)(F)F)C(C(=O)O)=C2 gave an IC50 [1] of 100 µM.

COc1cc(OC(F)(F)F)cc2c1OC(C(F)(F)F)C(C(=O)O)=C2 (stereo not given) gave an IC50 [1] of 0.32 µM and a Ratio IC50 [2] of 0.5.

Cc1cc2c(c(C)c1Cl)C=C(C(=O)O)C(C(F)(F)F)O2 (stereo not given) gave an IC50 [1] of 29.8 µM and a Ratio IC50 [2] of 229.

Cc1cc(Cl)c2c(c1)C=C(C(=O)O)C(C(F)(F)F)O2 (stereo not given) gave an IC50 [1] of 1.08 µM and a Ratio IC50 [2] of 5.7.

In the case of CCc1cc(OC(F)(F)F)cc2c1O[C@@H](C(F)(F)F)C(C(=O)O)=C2, the IC50 [1] is reported as 100 µM.

Compound Cc1cc2c(c(C)c1Cl)C=C(C(=O)O)[C@@H](C(F)(F)F)O2 has an IC50 [1] of 2.28 µM, an ED50 [3] of 0.41 mg/kg and an ED50 [4] of 8 mg/kg. It also gave an ED50 [5] of 7.6 mg/kg, an ED50 [6] of 3.2 mg/kg and a half-life [7] of 4.7 h. The half-life [8] was 23 h, the half-life [9] was 11 h and the half-life [10] was 5.4 h.

With C#Cc1ccc2c(c1)C=C(C(=O)O)C(C(F)(F)F)O2 (stereo not given) the IC50 [1] was 94.2 µM, the Ratio IC50 [2] was 1290 and the “inhibition (INH)” value [3] was 60%.
